From US20150119244A1, “AGRICULTURAL USES OF HYTd” (Agrinos AS, priority 2011, published 2015) come the findings set out here.

The subject of this assay is potatoes. Briefly: Potato trial in soil infested with fungi, test vs Metam-Sodium (Example 4).

From the text: Three hundred liters of Metam Sodium was applied per hectare.

Molecule `CNC(=S)S` [Metam-Sodium] displayed a Kilos (potatoes of size 1st) of 0.32 Kilos; a Kilos (potatoes of size 4ta) of 3.63 Kilos; a Kilos (potatoes of size 2d) of 6.46 Kilos; a Kilos (potatoes of size 3d) of 2.67 Kilos; a Kilos (potatoes of size GIANT) of 0.43 Kilos; a Kilos (potatoes of size MONO) of 1.47 Kilos. This molecule also registered a Kilos (potatoes, TOTAL of all sizes) of 15.0 Kilos. The Pieces is reported as 1 (potatoes of size 1st); 88 (potatoes of size 4ta); 35 (potatoes of size 2d); 24 (potatoes of size 3d); 1 (potatoes of size GIANT); 6 (potatoes of size MONO). For the same molecule, the Pieces (potatoes, TOTAL of all sizes) came to 155.
